From patent publication US8287889B2 (Wuhan Liyuanheng Pharmaceutical Technology Ltd., priority 2002, dated 2012)
Like-named read-outs stand apart in the source and are kept apart here.

Experiments:
Kunming mice = conditions: 10 mice
Method: The mice were provided by Medical school of Tongji University and with a batch No. 19-052.
Commonly, the lethality of the mice was regarded as positive index. After the death mice of each group were recorded and calculated and a LD50 value was calculated according to the Bliss statistical method.

[1] = system: intestinal cancer cell (HT-29); experiment: In vitro inhibition of intestinal cancer cell, time course; type: cell-based
Method: (§1) The relation between administering period and curable effect was intensely observed. That is to say, the inhibiting rate would be recorded according to different administering time of the medicine, such as 2, 3, 4 days administration. It is discovered that administered raw medicine of low concentration, such as 0.1 μg, 0.5 μg, 2 μg/ml, had weak inhibiting effects towards three different cancer cells. As the administering period is extended, the inhibiting effect would gradually be strengthened. […] The extension of administering period could not promptly increase the inhibiting effect. […] In short, for HT-29, A549, and Hep-G2, the maximum inhibiting effect occurred mostly at the fourth administering day, therefore illustrating a better slow-release effect of such medicine.

lung cancer cell (A549) = experiment: In vitro inhibition of lung cancer cell, time course; type: cell-based
Method: as §1

[2] = system: liver cancer cell (Hep-G2); experiment: In vitro inhibition of liver cancer cell, time course; type: cell-based
Method: as §1

[3] = administering dosage 2250, intravenous
[4] = administering dosage 3713, intravenous
[5] = administering dosage 6126, intravenous
[6] = administering dosage 10108, intravenous
[7] = administering dosage 16678, intravenous

With `C[C@H]1[C@H](C)CC[C@]2(C(=O)O)CC[C@]3(C)C(=CC[C@@H]4[C@@]5(C)CC[C@H](O)C(C)(C)[C@@H]5CC[C@]43C)[C@H]12` [Ursolic Acid for Injection, ursolic acid] the “Death number (r)” value (Kunming mice; [3]) was 0, the “Lethal rate(%)” value (Kunming mice; [3]) was 0% and the “Probability unit (y)” value (Kunming mice; [3]) was 0. The “Death number (r)” value (Kunming mice; [4]) was 1, the “Lethal rate(%)” value (Kunming mice; [4]) was 10% and the “Probability unit (y)” value (Kunming mice; [4]) was 3.72. For the same compound, the “Death number (r)” value (Kunming mice; [5]) was 3, the “Lethal rate(%)” value (Kunming mice; [5]) was 30% and the “Probability unit (y)” value (Kunming mice; [5]) was 4.48. For the same compound, the “Death number (r)” value (Kunming mice; [6]) was 6, the “Lethal rate(%)” value (Kunming mice; [6]) was 60% and the “Probability unit (y)” value (Kunming mice; [6]) was 5.25. For the same compound, the “Death number (r)” value (Kunming mice; [7]) was 10, the “Lethal rate(%)” value (Kunming mice; [7]) was 100% and the peak inhibiting effect ([1]; HT-29, 10, 50 μg/ml, third day of administration) was 95%. The inhibiting effect ([1]; HT-29, high concentration 10, 50 μg/ml) was “strong”, the inhibiting effect ([1]; HT-29, low concentration 0.1 μg, 0.5 μg, 2 μg/ml) was “weak” and the peak inhibiting effect (lung cancer cell (A549); A549, 10, 50 μg/ml, third day of administration) was 95%. The inhibiting effect (lung cancer cell (A549); A549, high concentration 10, 50 μg/ml) was “strong”, the inhibiting effect (lung cancer cell (A549); A549, low concentration 0.1 μg, 0.5 μg, 2 μg/ml) was “weak” and the peak inhibiting effect ([2]; Hep-G2, 10, 50 μg/ml, third day of administration) was 95%. The inhibiting effect ([2]; Hep-G2, high concentration 10, 50 μg/ml) was “strong” and the inhibiting effect ([2]; Hep-G2, low concentration 0.1 μg, 0.5 μg, 2 μg/ml) was “weak”.
